Data on 24 compounds can be found in patent US8461328B2, “Tricyclic heterocyclic compounds, compositions and methods of use thereof” (Genentech, Inc., priority 2010, dated 2013).

As a reminder, the Ki is the dissociation constant of the complex between target and ligand, obtained from inhibition or displacement.

What all share (type): biochemical
The target in one experiment is T1, TYK2 (Homo sapiens, UniProt P29597).
T1 construct: made in house; host or cells: SF9 insect cells (baculovirus)
T1 sequence (P29597 873-1187): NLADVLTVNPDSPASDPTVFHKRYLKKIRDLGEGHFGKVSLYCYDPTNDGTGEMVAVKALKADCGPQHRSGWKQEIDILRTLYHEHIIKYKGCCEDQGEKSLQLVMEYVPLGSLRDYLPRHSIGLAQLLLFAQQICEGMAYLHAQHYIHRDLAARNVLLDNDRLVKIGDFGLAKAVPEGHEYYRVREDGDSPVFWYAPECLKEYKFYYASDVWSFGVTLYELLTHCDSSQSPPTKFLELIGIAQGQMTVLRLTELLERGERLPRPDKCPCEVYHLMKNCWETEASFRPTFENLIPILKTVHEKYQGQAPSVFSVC
The experiment can be described thus: TYK2 inhibition (Table 4).

Another experiment has as its target T2, JAK3 (Homo sapiens, UniProt P52333).
T2 construct: made in house; host or cells: SF9 insect cells (baculovirus)
As to the kind of experiment: JAK3 inhibition (Table 4). The conditions noted are these: read-out: JAK3 Ki.

For a further experiment, the target named is T3, JAK2 (Homo sapiens, UniProt O60674).
T3 construct: made in house; host or cells: SF9 insect cells (baculovirus)
T3 sequence (O60674 812-1132): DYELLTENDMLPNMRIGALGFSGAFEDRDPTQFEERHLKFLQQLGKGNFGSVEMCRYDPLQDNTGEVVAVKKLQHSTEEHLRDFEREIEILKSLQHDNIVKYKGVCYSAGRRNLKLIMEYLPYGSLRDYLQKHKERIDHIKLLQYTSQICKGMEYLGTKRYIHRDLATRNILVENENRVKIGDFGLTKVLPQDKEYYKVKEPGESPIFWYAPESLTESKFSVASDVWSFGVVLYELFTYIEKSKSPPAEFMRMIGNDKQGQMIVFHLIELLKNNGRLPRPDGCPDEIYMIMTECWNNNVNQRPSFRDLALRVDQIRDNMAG
As to the kind of experiment: JAK2 inhibition (Table 4). To be noted: read-out: JAK2 Ki.

For the next experiment, the target named is T4, JAK1 (Homo sapiens, UniProt P23458).
T4 construct: made in house; host or cells: SF9 insect cells (baculovirus)
T4 sequence (P23458 852-1154): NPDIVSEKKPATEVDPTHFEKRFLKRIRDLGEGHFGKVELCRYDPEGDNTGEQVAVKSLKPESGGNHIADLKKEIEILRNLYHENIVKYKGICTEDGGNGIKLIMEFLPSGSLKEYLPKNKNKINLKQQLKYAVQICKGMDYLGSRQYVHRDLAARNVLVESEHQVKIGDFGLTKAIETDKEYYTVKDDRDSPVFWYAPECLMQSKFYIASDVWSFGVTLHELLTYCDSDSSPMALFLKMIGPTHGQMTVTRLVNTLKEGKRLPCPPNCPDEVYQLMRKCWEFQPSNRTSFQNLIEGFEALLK
The experiment can be described thus: JAK1 inhibition (Table 4). To be noted: read-out: JAK1 Ki.

T2 sequence (P52333 783-1124): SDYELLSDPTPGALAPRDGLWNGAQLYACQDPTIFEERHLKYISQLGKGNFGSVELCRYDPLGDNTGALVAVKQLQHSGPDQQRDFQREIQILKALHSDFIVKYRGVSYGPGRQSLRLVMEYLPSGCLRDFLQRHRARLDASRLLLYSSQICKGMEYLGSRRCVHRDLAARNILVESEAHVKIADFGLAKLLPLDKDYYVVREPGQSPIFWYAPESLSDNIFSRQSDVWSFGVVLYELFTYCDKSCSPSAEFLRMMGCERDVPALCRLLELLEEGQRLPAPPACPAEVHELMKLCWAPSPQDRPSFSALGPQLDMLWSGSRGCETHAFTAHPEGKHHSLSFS

For the compound `CS(=O)(=O)NC1CCC(n2cnc3cnc4[nH]ccc4c32)C1` (racemic) [Example 630, Racemic trans N-[3-(6H-1,2,3,5,6-tetraaza-as-indacen-1-yl)-cyclopentyl]-methanesulfonamide], the Ki at TYK2 stood at 25.8 nM; at JAK3, 18.4 nM; on JAK2, 6.62 nM; at JAK1 it was 2.59 nM.

Regarding `C[C@H](O)c1nc2cnc3[nH]ccc3c2n1[C@@H]1CCCN(C(=O)CC#N)C1` [Example 662, 3-{(R)-3-[2-((S)-1-Hydroxy-ethyl)-6H-1,2,3,5,6-tetraaza-as-indacen-1-yl]-piperidin-1-yl}-3-oxo-propionitrile], the Ki was found to be 877 nM on TYK2, 855 nM at JAK3, 307 nM at JAK2 and 26.2 nM at JAK1.

For `N#CCCN1CCC(n2c(CNC(=O)c3cccc(F)c3)nc3cnc4[nH]ccc4c32)CC1` [Example 505, N-{1-[1-(2-Cyano-ethyl)-piperidin-4-yl]-1,6-dihydro-1,3,5,6-tetraaza-as-indacen-2-ylmethyl}-3-fluoro-benzamide], the Ki at TYK2 was determined as 98.8 nM; at JAK3, 20.4 nM; at JAK2, 22.4 nM; on JAK1 it was 5.18 nM.

For `Cc1nc2cnc3[nH]ccc3c2n1[C@H]1CC[C@@H](NCC(F)(F)F)C1` [Example 719, [(1R,3S)-3-(2-Methyl-6H-1,3,5,6-tetraaza-as-indacen-1-yl)-cyclopentyl]-(2,2,2-trifluoro-ethyl)-amine], the Ki amounted to 30.4 nM on TYK2, 22 nM on JAK3, 23.2 nM on JAK2 and 4.07 nM at JAK1.

Take `O=C(N[C@H]1CC[C@H](n2cnc3cnc4[nH]ccc4c32)CC1)OC1CCCC1` [Example 347, [4-(6H-1,3,5,6-Tetraaza-as-indacen-1-yl)-cyclohexyl]-carbamic acid cyclopentyl ester]: the Ki came to 130 nM on TYK2, 136 nM at JAK3, 14.5 nM on JAK2 and 4.96 nM on JAK1.

`N#Cc1ccc(S(=O)(=O)N2CCC(n3cnc4cnc5[nH]ccc5c43)CC2)cc1` [Example 56, 4-[4-(6H-1,3,5,6-Tetraaza-as-indacen-1-yl)-piperidine-1-sulfonyl]benzonitrile]: the Ki at TYK2 was 64.7 nM; at JAK3, 337 nM; at JAK2 it was 9.97 nM; at JAK1 it was 3.84 nM.

As for `N#CCCN1CCC(n2c(Cn3cccn3)nc3cnc4[nH]ccc4c32)CC1` [Example 205, 3-[4-(2-Pyrazol-1-ylmethyl-6H-1,2,3,5,6-tetraaza-as-indacen-1-yl)-piperidin-1-yl]-propionitrile], the inhibition constant (Ki) worked out at 86.5 nM on TYK2, 32.6 nM at JAK3, 23.3 nM at JAK2 and 6.42 nM at JAK1.

Consider `CNc1nc2cnc3[nH]ccc3c2n1C1CCN(CCC#N)CC1` [Example 771, 3-[4-(2-Methylamino-6H-1,3,5,6 tetraaza-asindacen-1-yl)-piperidin-1-yl]-propionitrile], for which the Ki at TYK2 turned out to be 27.8 nM; on JAK3, 19.1 nM; at JAK2 it was 6.62 nM; at JAK1 it was 2.06 nM.

Regarding `Cc1nc2cnc3[nH]ccc3c2n1-c1ccc(C#N)cc1` [Example 183, 4-(2-Methyl-6H-1,2,3,5,6-tetraaza-as-indacen-1-yl)-benzonitrile], the inhibition constant Ki at TYK2 came to 72.7 nM; on JAK3, 650 nM; at JAK2, 44.9 nM; at JAK1 it was 20.4 nM.

For `N#CCCN1CCC(n2c(CNS(=O)(=O)C3CC3)nc3cnc4[nH]ccc4c32)CC1` [Example 497, Cyclopropanesulfonic acid {1-[1-(2-cyano-ethyl)-piperidin-4-yl]-1,6-dihydro-1,3,5,6-tetraaza-as-indacen-2-ylmethyl}-amide], the inhibitory constant (Ki) stood at 169 nM at TYK2, 76.3 nM on JAK3, 41.5 nM at JAK2 and 13 nM at JAK1.

Regarding `CC(C)N1CCC(n2cnc3cnc4[nH]ccc4c32)CC1` [Example 549, 1-(1-Isopropyl-piperidin-4-yl)-1,6-dihydro-1,3,5,6-tetraaza-as-indacene], the Ki at TYK2 came out at 809 nM; at JAK3, 3490 nM; on JAK2, 182 nM; at JAK1, 92.4 nM.

On to `CC(O)c1nc2cnc3[nH]ccc3c2n1C1CCN(S(C)(=O)=O)CC1` (racemic) [Example 527, 1-[1-(1-Methanesulfonyl-piperidin-4-yl)-1,6-dihydro-1,3,5,6-tetraaza-as-indacen-2-yl]-ethanol], for which the Ki was 65.2 nM on TYK2, 189 nM at JAK3, 200 nM on JAK2 and 107 nM on JAK1.

As to `N#CCCN1CCC(n2c(COCC3CCC3)nc3cnc4[nH]ccc4c32)CC1` [Example 840, 3-[4-(2-Cyclobutylmethoxymethyl-6H-1,3,5,6-tetraaza-as-indacen-1-yl)-piperidin-1-yl]-propionitrile], the Ki was found to be 635 nM on TYK2, 104 nM on JAK3, 102 nM at JAK2 and 62.3 nM on JAK1.

For the compound `OCc1nc2cnc3[nH]ccc3c2n1C1CCNCC1` [Example 236, (1-Piperidin-4-yl-1,6-dihydro-1,3,5,6-tetraaza-as-indacen-2-yl)-methanol], the Ki at TYK2 amounted to 61.5 nM; at JAK3, 128 nM; on JAK2, 126 nM; on JAK1, 7.66 nM.

`CCC(C)Cc1nc2cnc3[nH]ccc3c2n1C1CCN(CCC#N)CC1` (racemic) [Example 122, 3-{4-[2-(2-Methyl-butyl)-6H-1,2,3,5,6-tetraaza-as-indacen-1-yl]-piperidin-1-yl}-propionitrile]: the Ki at TYK2 was found to be 1050 nM; on JAK3, 83.4 nM; at JAK2, 281 nM; on JAK1 it was 62.3 nM.

Turning to `N#CCCN1CCC(n2c(CC(=O)N3CCC(F)(F)CC3)nc3cnc4[nH]ccc4c32)CC1` [Example 240, 3-(4-{2-[2-(4,4-Difloro-piperidin-1-yl)-2-oxo-ethyl]-6H-1,3,5,6-tetraaza-as-indacen-1-yl)-piperidin-1-yl]-propionitrile], the Ki on TYK2 came out at 72.7 nM; at JAK3, 7.35 nM; at JAK2, 56 nM; on JAK1 it was 6.92 nM.

For `CC(C)(O)CN1CC[C@@H](n2cnc3cnc4[nH]ccc4c32)C1` [Example 185, 2-Methyl-1-[(R)-3-(6H-1,2,3,5,6-tetraaza-as-indacen-1-yl)-pyrrolidin-1-yl]-propan-2-ol], the inhibitory constant (Ki) is 708 nM on TYK2, 502 nM at JAK3, 162 nM at JAK2 and 105 nM on JAK1.

For the compound `CC(C1CCCO1)n1cnc2cnc3[nH]ccc3c21` (single isomer, unassigned) [Example 418, 1-[1-(Tetrahydro-furan-2-yl)-ethyl]-1,6-dihydro-1,3,5,6-tetraaza-as-indacene], the Ki came out at 173 nM on TYK2, 33.5 nM on JAK3, 29.9 nM at JAK2 and 34.8 nM at JAK1.

On to `CN(CC(F)(F)F)C(=O)NC1CCC(n2cnc3cnc4[nH]ccc4c32)C1` (racemic) [Example 737, 1-Methyl-3-[3-(6H-1,3,5,6-tetraaza-as-indacen-1-yl)-cyclopentyl]-1-(2,2,2-trifluoro-ethyl)-urea], for which the Ki at TYK2 is 107 nM; on JAK3, 7.19 nM; at JAK2 it was 8.44 nM; at JAK1, 4.53 nM.

As for `O=C(CN1CCCCC1=O)N1CCC(n2cnc3cnc4[nH]ccc4c32)CC1` [Example 441, 1-{2-Oxo-2-[4-(6H-1,3,5,6-tetraaza-as-indacen-1-yl)-piperidin-1-yl]-ethyl}-piperidin-2-one], the Ki is 832 nM at TYK2, 1530 nM at JAK3, 179 nM at JAK2 and 55.8 nM on JAK1.

For the compound `O=C(Cc1nc2cnc3[nH]ccc3c2n1C1CCCOC1)N1CCCOCC1` (racemic) [Example 980, 1-[1,4]Oxazepan-4-yl-2-[1-(tetrahydro-pyran-3-yl)-1,6-dihydro-1,3,5,6-tetraaza-as-indacen-2-yl]-ethanone], the Ki at TYK2 stood at 109 nM; at JAK3, 300 nM; on JAK2, 506 nM; at JAK1 it was 78.8 nM.

Turning to `Cc1nc2cnc3[nH]ccc3c2n1[C@@H]1CC[C@@H](NC(=O)OC(C)(C)C)C1` [Example 623, [(1R,3R)-3-(2-Methyl-6H-1,2,3,5,6-tetraaza-as-indacen-1-yl)-cyclopentyl]-carbamic acid tert-butyl ester], the Ki turned out to be 118 nM at TYK2, 42.7 nM on JAK3, 8.69 nM on JAK2 and 0.98 nM on JAK1.

In the case of `COCC(=O)NCCc1nc2cnc3[nH]ccc3c2n1C1CCN(CCC#N)CC1` [Example 372, N-(2-{1-[1-(2-Cyano-ethyl)-piperidin-4-yl]-1,6-dihydro-1,3,5,6-tetraaza-as-indacen-2-yl}-ethyl)-2-methoxy-acetamide], the Ki on TYK2 was 135 nM; at JAK3, 28.8 nM; at JAK2 it was 22 nM; at JAK1 it was 4.59 nM.

Regarding `CS(=O)(=O)N1CCC(n2c(-c3cccnc3)nc3cnc4[nH]ccc4c32)CC1` [Example 361, 1-(1-Methanesulfonyl-piperidin-4-yl)-2-pyridin-3-yl-1,6-dihydro-1,3,5,6-tetraaza-as-indacene], the Ki at TYK2 was 732 nM; on JAK3, 354 nM; at JAK2 it was 248 nM; on JAK1, 379 nM.
